Source: ChEMBL document CHEMBL4330147, “Adiponectin-Secretion-Promoting Phenylethylchromones from the Agarwood of Aquilaria malaccensis” (J Nat Prod, 2019)
pEC50, pKi: −log10 of the molar value. The source made the active and inactive calls. The calls are words filed in the database; no cut-off is given here.

Columns and labels:
Homo sapiens = species: Homo sapiens; experiment: Induction of adipogenesis in human bone marrow-derived mesenchymal stem cells assessed as increase in adiponectin production at 30 uM measured on day 5 in presence of IDX by ELISA; assay type: functional
[1] = Induction of adipogenesis in human bone marrow-derived mesenchymal stem cells assessed as increase in adiponectin production at 60 uM measured on day 5 in presence of IDX by ELISA relative to pioglitazone; assay type: functional; conditions: 120 h
cells = conditions: Homo sapiens, 120 h
Description: Induction of adipogenesis in human bone marrow-derived mesenchymal stem cells assessed as increase in adiponectin production measured on day 5 in presence of IDX by ELISA

[2] = Induction of adipogenesis in human bone marrow-derived mesenchymal stem cells assessed as increase in adiponectin production at 30 uM measured on day 5 in presence of IDX by ELISA relative to control; assay type: functional
[3] = biological target: T1, Peroxisome proliferator-activated receptor gamma (Homo sapiens) (UniProt P37231); experiment: Inhibition of labeled ligand binding to PPARgamma (unknown origin) at 60 uM by TR-FRET assay relative to control
T1 sequence (whole entry): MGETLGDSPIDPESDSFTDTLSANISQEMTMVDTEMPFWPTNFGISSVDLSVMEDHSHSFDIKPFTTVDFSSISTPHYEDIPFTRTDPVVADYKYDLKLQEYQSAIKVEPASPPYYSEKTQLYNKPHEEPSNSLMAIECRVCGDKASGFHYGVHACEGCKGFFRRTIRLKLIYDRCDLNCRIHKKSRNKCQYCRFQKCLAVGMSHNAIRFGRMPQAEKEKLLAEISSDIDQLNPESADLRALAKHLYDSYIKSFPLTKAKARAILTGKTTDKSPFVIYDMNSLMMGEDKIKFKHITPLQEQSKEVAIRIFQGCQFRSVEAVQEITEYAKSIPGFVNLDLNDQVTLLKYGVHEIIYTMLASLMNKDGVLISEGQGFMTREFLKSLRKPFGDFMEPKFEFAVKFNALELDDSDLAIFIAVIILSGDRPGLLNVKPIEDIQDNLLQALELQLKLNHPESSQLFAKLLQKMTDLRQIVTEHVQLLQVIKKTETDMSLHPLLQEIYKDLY

[4] = biological target: T2, Peroxisome proliferator-activated receptor gamma (Homo sapiens, UniProt P37231); experiment: (§1) Binding affinity to PPARgamma (unknown origin) by TR-FRET assay
T2 sequence (P37231 whole entry): T1 sequence (whole entry)

[5] = biological target: T3, Peroxisome proliferator-activated receptor delta (Homo sapiens) (UniProt Q03181); experiment: Binding affinity to PPARdelta (unknown origin) at 30 uM by TR-FRET assay
T3 sequence (whole entry): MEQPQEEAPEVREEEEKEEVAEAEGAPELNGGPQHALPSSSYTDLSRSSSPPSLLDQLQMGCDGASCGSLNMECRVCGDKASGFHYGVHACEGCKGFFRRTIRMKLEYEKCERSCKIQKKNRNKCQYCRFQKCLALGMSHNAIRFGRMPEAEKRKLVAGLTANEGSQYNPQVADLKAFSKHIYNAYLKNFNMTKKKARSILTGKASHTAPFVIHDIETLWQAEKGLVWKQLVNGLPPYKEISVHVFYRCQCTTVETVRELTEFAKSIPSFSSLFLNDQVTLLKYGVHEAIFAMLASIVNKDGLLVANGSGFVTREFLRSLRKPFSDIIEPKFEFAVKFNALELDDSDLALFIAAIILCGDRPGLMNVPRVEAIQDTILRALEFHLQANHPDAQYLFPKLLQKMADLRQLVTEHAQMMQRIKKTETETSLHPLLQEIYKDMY

[6] = biological target: T1, Peroxisome proliferator-activated receptor gamma (Homo sapiens); experiment: as §1
[7] = biological target: T1, Peroxisome proliferator-activated receptor gamma (Homo sapiens); experiment: Inhibition of labeled ligand binding to PPARgamma (unknown origin) at 30 uM by TR-FRET assay relative to control
[8] = biological target: T4, Peroxisome proliferator-activated receptor alpha (Homo sapiens) (UniProt Q07869); experiment: Binding affinity to PPARalpha (unknown origin) at 30 uM by TR-FRET assay
T4 sequence (whole entry): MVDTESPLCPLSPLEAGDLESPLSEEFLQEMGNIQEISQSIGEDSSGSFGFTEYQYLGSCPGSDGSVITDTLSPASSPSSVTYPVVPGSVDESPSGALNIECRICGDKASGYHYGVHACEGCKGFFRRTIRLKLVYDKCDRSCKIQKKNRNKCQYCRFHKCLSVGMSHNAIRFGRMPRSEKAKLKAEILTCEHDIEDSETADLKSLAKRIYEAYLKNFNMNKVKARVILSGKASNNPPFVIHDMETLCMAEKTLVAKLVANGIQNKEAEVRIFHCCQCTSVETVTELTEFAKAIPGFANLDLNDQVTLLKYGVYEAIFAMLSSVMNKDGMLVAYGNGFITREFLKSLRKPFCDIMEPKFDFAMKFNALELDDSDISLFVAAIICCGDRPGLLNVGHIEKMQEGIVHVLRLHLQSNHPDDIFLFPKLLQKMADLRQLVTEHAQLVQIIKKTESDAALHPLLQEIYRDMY

[9] = biological target: T5, Glucocorticoid receptor (Homo sapiens) (UniProt P04150); experiment: Binding affinity to GR (unknown origin) at 30 uM by TR-FRET assay
T5 sequence (whole entry): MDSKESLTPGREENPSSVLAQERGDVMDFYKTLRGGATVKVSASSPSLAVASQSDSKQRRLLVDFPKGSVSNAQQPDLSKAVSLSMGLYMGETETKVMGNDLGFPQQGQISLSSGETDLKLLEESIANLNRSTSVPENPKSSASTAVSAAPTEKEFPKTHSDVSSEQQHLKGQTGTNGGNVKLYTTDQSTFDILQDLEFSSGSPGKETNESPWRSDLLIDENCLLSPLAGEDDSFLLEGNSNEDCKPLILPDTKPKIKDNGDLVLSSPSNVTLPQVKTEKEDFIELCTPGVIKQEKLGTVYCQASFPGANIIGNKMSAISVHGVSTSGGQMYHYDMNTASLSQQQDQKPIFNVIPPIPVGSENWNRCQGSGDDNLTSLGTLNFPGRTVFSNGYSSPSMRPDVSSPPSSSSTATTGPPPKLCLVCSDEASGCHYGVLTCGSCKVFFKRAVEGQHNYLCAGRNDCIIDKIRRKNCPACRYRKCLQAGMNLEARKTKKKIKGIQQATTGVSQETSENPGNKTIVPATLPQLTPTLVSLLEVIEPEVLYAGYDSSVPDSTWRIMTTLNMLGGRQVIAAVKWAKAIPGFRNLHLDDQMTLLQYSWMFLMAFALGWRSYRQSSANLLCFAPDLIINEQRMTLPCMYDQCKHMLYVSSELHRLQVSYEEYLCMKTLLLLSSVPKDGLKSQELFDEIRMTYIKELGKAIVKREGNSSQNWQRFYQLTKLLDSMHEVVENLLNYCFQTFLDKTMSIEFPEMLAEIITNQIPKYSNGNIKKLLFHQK

[10] = biological target: T6, Oxysterols receptor LXR-alpha (Homo sapiens) (UniProt Q13133); experiment: Binding affinity to LXRalpha (unknown origin) at 30 uM by TR-FRET assay
T6 sequence (whole entry): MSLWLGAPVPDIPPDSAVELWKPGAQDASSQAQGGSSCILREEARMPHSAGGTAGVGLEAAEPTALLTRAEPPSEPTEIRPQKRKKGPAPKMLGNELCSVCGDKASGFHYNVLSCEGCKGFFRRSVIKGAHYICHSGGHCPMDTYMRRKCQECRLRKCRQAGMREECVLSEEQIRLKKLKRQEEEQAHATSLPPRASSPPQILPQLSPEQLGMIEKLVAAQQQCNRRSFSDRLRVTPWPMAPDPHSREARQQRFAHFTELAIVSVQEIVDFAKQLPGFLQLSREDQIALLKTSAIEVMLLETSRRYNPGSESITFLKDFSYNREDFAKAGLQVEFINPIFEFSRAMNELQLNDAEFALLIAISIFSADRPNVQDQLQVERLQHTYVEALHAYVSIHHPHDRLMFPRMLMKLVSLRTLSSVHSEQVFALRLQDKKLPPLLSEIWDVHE

## O=c1cc(CCc2ccccc2)oc2c(O)cccc12
Homo sapiens
  Activity: inactive

## O=c1cc(CCc2ccccc2)oc2ccc(O)c(O)c12
[1]
  Emax at 60 µM: 48%
cells
  pEC50: < 4.22
Homo sapiens
  Activity: Active
[2]
  fold change (FC): 1.97
[3]
  inhibition: 41.1%

## O=c1cc(CCc2ccccc2O)oc2ccccc12
Homo sapiens
  Activity: inactive

## O=C1C=C(CCc2ccccc2)OC2C1[C@@H]1O[C@@H]1[C@H](O)[C@H]2O (relative stereo)
Homo sapiens
  Activity: Active

## COc1ccc(Cl)cc1C(=O)NCCc1ccc(S(=O)(=O)NC(=O)NC2CCCCC2)cc1 [GLYBURIDE]
[4]
  pKi: 6.18
cells
  pEC50: 5.53

## COc1ccc2c(=O)cc(CCc3ccccc3)oc2c1
[5]
  Activity: inactive
[6]
  Activity: Dose-dependent effect
[4]
  pKi: 4.83
[7]
  inhibition: 50.3%
cells
  pEC50: 4.69
Homo sapiens
  Activity: Active
[8]
  Activity: inactive
[9]
  Activity: inactive
[10]
  Activity: inactive

## COc1ccc2oc(CCc3ccccc3)cc(=O)c2c1O
Homo sapiens
  Activity: Active

## O=c1cc(CCc2ccccc2)oc2cccc(O)c12
Homo sapiens
  Activity: Active

## O=c1cc(CCc2ccccc2)oc2c(Cl)cc(O)cc12
Homo sapiens
  Activity: Active
